Experimental findings from ChEMBL document CHEMBL1806458, “The design, synthesis and structure-activity relationships of novel isoindoline-based histone deacetylase inhibitors” (Bioorg Med Chem Lett, 2011) are described below.

≈ marks a conversion by molar mass, not a printed value.

Data set [1] in a line: Half life in rat liver microsomes. In kind it is ADME, Microsome.
Another data set concerns hERG (KCNH2). Particulars: human.
Data set [2] in a line: Half life in human liver microsomes. In kind it is ADME, Microsome. On the technique in general: Liver microsomes are a subcellular fraction often used to study metabolism.
In a further data set the test system is HCT-116. As to the kind of experiment: cells. Conditions: Homo sapiens.
Another data set concerns the target Cytochrome P450 3A4 (Homo sapiens, UniProt P08684).
In a further data set the target is Histone deacetylase 1 (Homo sapiens, UniProt Q13547).
Histone deacetylase 1, sequence (Q13547 whole entry): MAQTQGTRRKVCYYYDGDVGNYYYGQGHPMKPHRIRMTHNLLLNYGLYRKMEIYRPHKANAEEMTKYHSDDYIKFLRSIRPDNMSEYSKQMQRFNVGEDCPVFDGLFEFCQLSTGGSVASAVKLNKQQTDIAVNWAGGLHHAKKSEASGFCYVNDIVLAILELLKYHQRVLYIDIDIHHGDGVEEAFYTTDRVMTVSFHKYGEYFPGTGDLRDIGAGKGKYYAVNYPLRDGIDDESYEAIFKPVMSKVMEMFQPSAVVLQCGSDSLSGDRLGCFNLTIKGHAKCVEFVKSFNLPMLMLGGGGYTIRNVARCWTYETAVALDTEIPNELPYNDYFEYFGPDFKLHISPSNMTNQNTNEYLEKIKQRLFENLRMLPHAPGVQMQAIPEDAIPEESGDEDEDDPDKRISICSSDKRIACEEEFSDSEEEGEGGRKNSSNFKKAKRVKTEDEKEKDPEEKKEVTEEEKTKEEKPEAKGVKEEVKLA
Data set [3] concerns the target T1, Voltage-gated inwardly rectifying potassium channel KCNH2 (Homo sapiens, UniProt Q12809). As to the kind of experiment: Inhibition of human ERG by automated patch clamp assay. In general terms: Patch clamp records ionic current or voltage across a cell membrane.
The nature of data set [4]: Thermodynamic solubility of the compound at pH 6.8. The data set is classed as physicochemical. Particulars: buffer; for solubility thermodynamic: read-out: Therm_solubility.
Data set [5] deals with T1, Voltage-gated inwardly rectifying potassium channel KCNH2. Nature of the data set: Binding affinity to human ERG by radioligand binding assay.

Cytochrome P450 3A4, sequence (P08684 whole entry): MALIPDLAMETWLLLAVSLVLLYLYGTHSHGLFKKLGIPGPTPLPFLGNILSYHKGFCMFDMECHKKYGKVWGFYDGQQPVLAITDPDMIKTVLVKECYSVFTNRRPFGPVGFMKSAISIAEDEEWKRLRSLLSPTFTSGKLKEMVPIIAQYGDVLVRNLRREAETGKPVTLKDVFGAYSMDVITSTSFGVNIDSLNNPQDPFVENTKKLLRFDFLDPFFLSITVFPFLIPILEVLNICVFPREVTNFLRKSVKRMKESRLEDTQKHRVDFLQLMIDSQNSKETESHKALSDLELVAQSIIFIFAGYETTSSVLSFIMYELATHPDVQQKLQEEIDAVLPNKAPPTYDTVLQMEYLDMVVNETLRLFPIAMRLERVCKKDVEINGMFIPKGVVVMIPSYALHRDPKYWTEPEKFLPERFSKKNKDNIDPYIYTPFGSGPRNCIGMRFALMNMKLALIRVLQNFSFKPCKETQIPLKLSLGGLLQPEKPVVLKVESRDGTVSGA
T1 sequence (Q12809 whole entry): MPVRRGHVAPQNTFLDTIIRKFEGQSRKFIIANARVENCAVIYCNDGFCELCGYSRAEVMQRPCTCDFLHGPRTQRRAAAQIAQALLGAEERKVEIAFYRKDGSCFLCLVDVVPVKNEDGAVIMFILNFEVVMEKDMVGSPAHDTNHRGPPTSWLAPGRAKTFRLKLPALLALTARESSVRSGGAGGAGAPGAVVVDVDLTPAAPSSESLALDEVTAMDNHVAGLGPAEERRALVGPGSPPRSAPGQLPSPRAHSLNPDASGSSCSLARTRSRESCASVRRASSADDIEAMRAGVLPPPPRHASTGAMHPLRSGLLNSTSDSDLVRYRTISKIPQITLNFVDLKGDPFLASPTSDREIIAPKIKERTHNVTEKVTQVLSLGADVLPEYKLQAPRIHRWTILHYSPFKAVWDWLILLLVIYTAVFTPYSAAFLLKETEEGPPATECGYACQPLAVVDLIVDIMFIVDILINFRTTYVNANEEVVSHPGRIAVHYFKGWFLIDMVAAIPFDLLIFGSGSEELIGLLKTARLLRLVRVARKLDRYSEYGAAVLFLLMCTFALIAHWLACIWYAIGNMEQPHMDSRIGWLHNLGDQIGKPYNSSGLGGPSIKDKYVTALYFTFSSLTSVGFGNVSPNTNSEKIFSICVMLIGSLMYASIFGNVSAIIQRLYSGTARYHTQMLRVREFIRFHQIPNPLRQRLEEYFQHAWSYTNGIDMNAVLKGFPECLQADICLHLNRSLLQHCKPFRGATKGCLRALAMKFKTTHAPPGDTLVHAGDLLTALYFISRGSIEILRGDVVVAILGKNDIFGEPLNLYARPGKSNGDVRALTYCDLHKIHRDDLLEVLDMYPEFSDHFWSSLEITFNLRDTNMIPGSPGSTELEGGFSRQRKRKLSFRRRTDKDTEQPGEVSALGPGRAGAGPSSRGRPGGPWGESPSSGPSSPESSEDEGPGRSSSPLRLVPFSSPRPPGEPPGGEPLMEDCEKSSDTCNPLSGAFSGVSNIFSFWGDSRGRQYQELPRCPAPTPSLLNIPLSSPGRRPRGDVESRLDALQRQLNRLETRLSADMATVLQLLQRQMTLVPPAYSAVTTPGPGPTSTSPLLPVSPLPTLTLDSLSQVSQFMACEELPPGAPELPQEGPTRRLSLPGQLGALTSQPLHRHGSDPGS
Description for HCT-116: Antiproliferative activity against human HCT116 cells
Description for Histone deacetylase 1: Inhibition of purified recombinant HDAC1

As usually defined, the half-life is the time in which the quantity being followed falls by half. A lower half-life goes with fast loss. Usually IC50 stands for the concentration that gives 50% inhibition. A higher IC50 goes with weaker potency. `Cc1[nH]c2ccccc2c1CCN1Cc2ccc(/C=C/C(=O)NO)cc2C1`: the half-life came out at 2 min in data set [1] and 30 min in data set [2]. Further, in the data set on hERG (KCNH2) (hct-116), the selectivity ratio came to 114. For the same compound, the IC50 in the data set on HCT-116 was 42 nM; at Cytochrome P450 3A4, > 10000 nM; against Histone deacetylase 1, 26 nM; in data set [3], 4800 nM. Further, the solubility thermodynamic in data set [4] was 263 µM (≈ 95.1 µg/mL).

As to `CC(C)(C)OC(=O)N1Cc2ccc(/C=C/C(=O)NO)cc2C1`, the half-life was found to be 14 min in data set [1] and 131 min in data set [2]. For the same compound, the IC50 is 520 nM on Histone deacetylase 1 and > 30000 nM in data set [3]. Further, the solubility thermodynamic in data set [4] was found to be 99 µM (≈ 30.1 µg/mL).

Turning to `CC(C)(C)C(=O)N1Cc2ccc(/C=C/C(=O)NO)cc2C1`, the IC50 at Histone deacetylase 1 is 420 nM; in data set [3] it was > 30000 nM.

Regarding `O=C(/C=C/c1ccc2c(c1)CN(C(=O)C1CC1)C2)NO`, the IC50 against Histone deacetylase 1 is 420 nM; in [3] it was > 30000 nM.

For the compound `O=C(/C=C/c1ccc2c(c1)CN(C(=O)C1CCCC1)C2)NO`, the IC50 on Histone deacetylase 1 was 350 nM; in data set [3], > 30000 nM.

On Histone deacetylase 1, `O=C(/C=C/c1ccc2c(c1)CN(C(=O)C1CCCCC1)C2)NO` registered an IC50 of 390 nM.

`O=C(/C=C/c1ccc2c(c1)CN(C(=O)c1cccc(C(F)(F)F)c1)C2)NO`: the results for the IC50 in the data set on HCT-116 and on Histone deacetylase 1 were 5820 nM and 200 nM, respectively.

As for `O=C(/C=C/c1ccc2c(c1)CN(C(=O)c1cccnc1)C2)NO`, the IC50 against Histone deacetylase 1 was 380 nM; in data set [3] it was > 30000 nM. In addition, the Therm_solubility result in [4] was “soluble”.

On to `O=C(/C=C/c1ccc2c(c1)CN(C(=O)Cc1ccccc1)C2)NO`, for which the figures for the IC50 with HCT-116, at Cytochrome P450 3A4 and at Histone deacetylase 1 were 830 nM, > 50000 nM and 130 nM, respectively. The Therm_solubility result in data set [4] is “soluble”.

As for `Cc1[nH]c2ccccc2c1CC(=O)N1Cc2ccc(/C=C/C(=O)NO)cc2C1`, the half-life in [1] is 15 min; in data set [2] it was 173 min. Moreover, the selectivity ratio in the data set with hERG (KCNH2) (hERG assay and HCT116 cells) is > 158. Further, the IC50 in the data set with HCT-116 is 190 nM; against Histone deacetylase 1, 20 nM; in [3] it was > 30000 nM; in [5] it was > 30000 nM. Also, the solubility thermodynamic in data set [4] was < 20 µM.

In the case of `CS(=O)(=O)N1Cc2ccc(/C=C/C(=O)NO)cc2C1`, the figures for the IC50 (on Histone deacetylase 1; in [3]) were 630 nM and > 30000 nM, respectively. Also, in data set [4], the Therm_solubility entry was “soluble”.

As to `CCCCS(=O)(=O)N1Cc2ccc(/C=C/C(=O)NO)cc2C1`, the IC50 with HCT-116 is 3210 nM; at Histone deacetylase 1, 150 nM. Moreover, the Therm_solubility result in data set [4] is “soluble”.

On to `O=C(/C=C/c1ccc2c(c1)CN(S(=O)(=O)C1CC1)C2)NO`, for which the IC50 on Histone deacetylase 1 was 790 nM; in [3], > 30000 nM. The Therm_solubility entry in data set [4] is recorded as “soluble”.

As for `O=C(/C=C/c1ccc2c(c1)CN(S(=O)(=O)Cc1ccccc1)C2)NO`, the IC50 was 1120 nM in the data set with HCT-116, 120 nM at Histone deacetylase 1 and > 30000 nM in data set [3]. Moreover, in [4], the Therm_solubility result is listed as “soluble”.

`O=C(/C=C/c1ccc2c(c1)CN(S(=O)(=O)c1ccccc1)C2)NO`: the IC50 in the data set with HCT-116 is 3420 nM; against Histone deacetylase 1, 190 nM; in data set [3] it was > 30000 nM. Moreover, the Therm_solubility entry in data set [4] is reported as “soluble”.

Consider `O=C(/C=C/c1ccc2c(c1)CN(S(=O)(=O)c1cccs1)C2)NO`, for which the 50% inhibitory concentration (IC50) with HCT-116 was 800 nM; against Cytochrome P450 3A4 it was > 50000 nM; against Histone deacetylase 1, 89 nM. For the same compound, the solubility thermodynamic in data set [4] was 34 µM (≈ 11.9 µg/mL).

As to `O=C(/C=C/c1ccc2c(c1)CN(S(=O)(=O)c1ccncc1)C2)NO`, the results for the IC50 (on Histone deacetylase 1; in data set [3]) were 480 nM and > 30000 nM, respectively. Besides, the Therm_solubility entry in [4] is “soluble”.

`O=C(/C=C/c1ccc2c(c1)CN(S(=O)(=O)c1cccnc1)C2)NO`: the half-maximal inhibitory concentration (IC50) is 4260 nM in the data set with HCT-116, 150 nM at Histone deacetylase 1 and > 30000 nM in data set [3]. Moreover, the Therm_solubility result in [4] is listed as “soluble”.

As for `Cn1cnc(S(=O)(=O)N2Cc3ccc(/C=C/C(=O)NO)cc3C2)c1`, the IC50 in the data set with HCT-116 is 8840 nM; on Histone deacetylase 1, 140 nM; in data set [3] it was > 30000 nM. In addition, in data set [4], the Therm_solubility result was “soluble”.

`Cc1ccc(S(=O)(=O)N2Cc3ccc(/C=C/C(=O)NO)cc3C2)cc1`: the half-life in data set [1] amounted to 4.1 min; in data set [2], 11 min. In addition, the IC50 in the data set with HCT-116 is 1580 nM; against Histone deacetylase 1, 47 nM; in [3], > 30000 nM. Besides, the solubility thermodynamic in data set [4] turned out to be 20 µM (≈ 7.17 µg/mL).

As to `Cc1cccc(S(=O)(=O)N2Cc3ccc(/C=C/C(=O)NO)cc3C2)c1`, the half-life is 7 min in data set [1] and 15 min in data set [2]. In addition, the IC50 in the data set on HCT-116 was 1420 nM; at Histone deacetylase 1 it was 62 nM; in [3], > 30000 nM. In [4], the solubility thermodynamic was determined as 20 µM (≈ 7.17 µg/mL).

In the case of `Cc1ccccc1S(=O)(=O)N1Cc2ccc(/C=C/C(=O)NO)cc2C1`, the IC50 in the data set with HCT-116 came to 2230 nM; against Histone deacetylase 1, 130 nM. Further, in [4], the Therm_solubility result is on record as “soluble”.

As to `O=C(/C=C/c1ccc2c(c1)CN(S(=O)(=O)c1ccc(C(F)(F)F)cc1)C2)NO`, the IC50 with HCT-116 worked out at 2430 nM; on Histone deacetylase 1, 160 nM. Besides, the Therm_solubility entry in data set [4] is “soluble”.

In the case of `O=C(/C=C/c1ccc2c(c1)CN(S(=O)(=O)c1cccc(C(F)(F)F)c1)C2)NO`, the IC50 in the data set with HCT-116 is 2050 nM; against Histone deacetylase 1 it was 160 nM; in data set [3], > 30000 nM. The Therm_solubility entry in [4] is given as “soluble”.

As to `COc1ccc(S(=O)(=O)N2Cc3ccc(/C=C/C(=O)NO)cc3C2)cc1`, the half-life in [1] stood at 8.5 min; in [2], 19 min. For the same compound, the IC50 is 930 nM in the data set on HCT-116, > 50000 nM against Cytochrome P450 3A4, 35 nM on Histone deacetylase 1 and > 30000 nM in data set [3]. The solubility thermodynamic in data set [4] is < 5 µM.

Consider `COc1cccc(S(=O)(=O)N2Cc3ccc(/C=C/C(=O)NO)cc3C2)c1`, for which the IC50 in the data set on HCT-116 was 1130 nM; on Histone deacetylase 1, 92 nM; in data set [3] it was > 30000 nM. Also, the Therm_solubility result in data set [4] is listed as “soluble”.

As to `O=C(/C=C/c1ccc2c(c1)CN(Cc1ccccc1)C2)NO`, the half-life in [1] is 29 min; in [2], 50 min. In addition, the results for the IC50 (with HCT-116; on Histone deacetylase 1; in [3]) were 1040 nM, 200 nM and 27500 nM, respectively.

In the case of `O=C(/C=C/c1ccc2c(c1)CN(CCC1CCCCC1)C2)NO`, the IC50 in the data set on HCT-116 is 900 nM; at Histone deacetylase 1, 100 nM.

`O=C(/C=C/c1ccc2c(c1)CN(CCc1c[nH]c3ccccc13)C2)NO` gave a half-life in data set [1] of 5 min. For the same compound, the results for the IC50 with HCT-116, against Cytochrome P450 3A4 and against Histone deacetylase 1 were 220 nM, > 10000 nM and 16 nM, respectively. Moreover, in data set [4], the solubility thermodynamic came to 490 µM (≈ 170 µg/mL).

Consider `O=C(/C=C/c1ccc2c(c1)CN(CCc1cnn3ccccc13)C2)NO`, for which the half-life came to 9 min in data set [1] and 112 min in [2]. In addition, in the data set with hERG (KCNH2) (hct-116), the selectivity ratio turned out to be 7.4. The IC50 with HCT-116 was 530 nM; against Cytochrome P450 3A4 it was > 50000 nM; at Histone deacetylase 1, 78 nM; in [3] it was 5200 nM. Moreover, the solubility thermodynamic in [4] stood at 765 µM (≈ 267 µg/mL).

Take `Cc1noc(-c2ccccc2)c1CCN1Cc2ccc(/C=C/C(=O)NO)cc2C1`: the results for the half-life in data set [1] and in data set [2] were 6 min and 17 min, respectively. In addition, the IC50 with HCT-116 is 2200 nM; against Histone deacetylase 1, 170 nM. Moreover, the solubility thermodynamic in data set [4] stood at 490 µM (≈ 191 µg/mL).

For `O=C(/C=C/c1cccc(S(=O)(=O)Nc2ccccc2)c1)NO` [BELINOSTAT], the half-life in [1] was 18 min; in [2] it was 405 min. Further, in data set [4], the solubility thermodynamic is 734 µM (≈ 234 µg/mL).

With `O=C(/C=C/c1ccc(CN(CCO)CCc2c[nH]c3ccccc23)cc1)NO` [DACINOSTAT], the half-life in [1] came to 2.3 min; in data set [2], 12 min. Also, the solubility thermodynamic in [4] amounted to 97 µM (≈ 36.8 µg/mL).

For `Nc1ccccc1NC(=O)c1ccc(CNC(=O)OCc2cccnc2)cc1` [ENTINOSTAT], the half-life in data set [1] and in data set [2] was 405 min in each case. On Cytochrome P450 3A4, this compound yielded an IC50 of 730 nM. In data set [4], the solubility thermodynamic was 401 µM (≈ 151 µg/mL).

As to `Nc1ccccc1NC(=O)c1ccc(CNc2nccc(-c3cccnc3)n2)cc1` [MOCETINOSTAT], the half-life in data set [1] was found to be 31.3 min; in data set [2], 37.8 min. For the same compound, the solubility thermodynamic in [4] is 33 µM (≈ 13.1 µg/mL).

Take `O=C(CCCCCCC(=O)Nc1ccccc1)NO` [VORINOSTAT]: the half-life in data set [1] came out at 114 min; in data set [2], 405 min. Besides, the Therm_solubility in data set [4] turned out to be 19 µM.
